Test results reported in patent US20260306641A1, “HELICASE DEGRADERS” (priority 2023, published 2026).

What was measured:
HSP90 = settings: cited from earlier work
[1] = tested on: MCM/CMG and replisome proteins in HaCaT cells; test: Immunoblots of chromatin-bound or total proteins, synchronized HaCaT cells; type: cell-based, human
[2] = tested on: T1, human CMG helicase (hCMG); test: hCMG ATPase activity, FP ADP^2 Transcreener assay; type: biochemical; settings: primary FP ATPase assay
T1 construct: made in house; host or cells: High Five insect cells, baculovirus (11 viruses co-infected)
T1 sequence (P49736 whole entry): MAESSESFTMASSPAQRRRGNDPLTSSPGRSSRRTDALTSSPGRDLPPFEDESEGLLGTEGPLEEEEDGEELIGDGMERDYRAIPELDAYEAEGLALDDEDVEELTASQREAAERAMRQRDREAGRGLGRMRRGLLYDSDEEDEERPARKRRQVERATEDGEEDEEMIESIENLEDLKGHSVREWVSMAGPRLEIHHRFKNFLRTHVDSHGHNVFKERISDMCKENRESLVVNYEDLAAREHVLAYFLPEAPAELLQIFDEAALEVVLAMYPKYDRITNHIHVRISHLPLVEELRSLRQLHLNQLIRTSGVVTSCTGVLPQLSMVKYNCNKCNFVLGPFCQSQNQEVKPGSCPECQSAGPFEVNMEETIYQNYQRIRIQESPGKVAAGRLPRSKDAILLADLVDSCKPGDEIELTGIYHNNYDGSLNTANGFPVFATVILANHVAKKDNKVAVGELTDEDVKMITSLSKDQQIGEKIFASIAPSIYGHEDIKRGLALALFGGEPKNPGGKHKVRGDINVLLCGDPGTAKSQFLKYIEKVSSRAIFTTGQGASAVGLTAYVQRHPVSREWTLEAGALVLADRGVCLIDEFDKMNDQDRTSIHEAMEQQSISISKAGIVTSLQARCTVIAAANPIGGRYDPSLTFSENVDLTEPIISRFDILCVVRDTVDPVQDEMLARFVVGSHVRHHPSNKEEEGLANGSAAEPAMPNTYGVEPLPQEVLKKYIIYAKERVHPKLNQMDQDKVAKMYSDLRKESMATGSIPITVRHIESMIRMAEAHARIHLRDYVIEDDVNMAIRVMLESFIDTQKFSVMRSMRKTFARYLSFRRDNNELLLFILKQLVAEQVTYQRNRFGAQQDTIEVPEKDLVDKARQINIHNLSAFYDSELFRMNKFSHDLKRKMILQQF
T1 sequence (P25205 whole entry, further chain): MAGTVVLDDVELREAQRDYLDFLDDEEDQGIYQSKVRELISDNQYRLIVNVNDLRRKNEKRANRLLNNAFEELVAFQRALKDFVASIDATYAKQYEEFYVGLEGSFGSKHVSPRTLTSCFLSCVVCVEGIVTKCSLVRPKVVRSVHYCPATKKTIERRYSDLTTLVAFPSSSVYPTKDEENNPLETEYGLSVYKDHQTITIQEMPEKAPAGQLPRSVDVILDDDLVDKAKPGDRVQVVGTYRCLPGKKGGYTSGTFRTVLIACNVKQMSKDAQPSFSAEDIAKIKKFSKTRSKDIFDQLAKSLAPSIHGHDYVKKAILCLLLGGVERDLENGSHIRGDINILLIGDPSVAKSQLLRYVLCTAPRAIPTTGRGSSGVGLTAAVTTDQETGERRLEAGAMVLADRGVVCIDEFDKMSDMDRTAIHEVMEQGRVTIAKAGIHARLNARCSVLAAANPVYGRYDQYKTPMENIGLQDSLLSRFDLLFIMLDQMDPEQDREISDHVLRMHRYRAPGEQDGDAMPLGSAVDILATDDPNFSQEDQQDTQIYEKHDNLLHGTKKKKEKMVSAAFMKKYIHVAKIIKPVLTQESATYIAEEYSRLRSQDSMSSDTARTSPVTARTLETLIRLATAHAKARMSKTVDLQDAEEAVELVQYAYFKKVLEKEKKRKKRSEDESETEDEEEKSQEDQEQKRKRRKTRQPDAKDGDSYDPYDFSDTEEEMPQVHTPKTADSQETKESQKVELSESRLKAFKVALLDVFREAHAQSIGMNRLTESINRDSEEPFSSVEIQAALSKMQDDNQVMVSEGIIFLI
T1 sequence (P33991 whole entry, further chain): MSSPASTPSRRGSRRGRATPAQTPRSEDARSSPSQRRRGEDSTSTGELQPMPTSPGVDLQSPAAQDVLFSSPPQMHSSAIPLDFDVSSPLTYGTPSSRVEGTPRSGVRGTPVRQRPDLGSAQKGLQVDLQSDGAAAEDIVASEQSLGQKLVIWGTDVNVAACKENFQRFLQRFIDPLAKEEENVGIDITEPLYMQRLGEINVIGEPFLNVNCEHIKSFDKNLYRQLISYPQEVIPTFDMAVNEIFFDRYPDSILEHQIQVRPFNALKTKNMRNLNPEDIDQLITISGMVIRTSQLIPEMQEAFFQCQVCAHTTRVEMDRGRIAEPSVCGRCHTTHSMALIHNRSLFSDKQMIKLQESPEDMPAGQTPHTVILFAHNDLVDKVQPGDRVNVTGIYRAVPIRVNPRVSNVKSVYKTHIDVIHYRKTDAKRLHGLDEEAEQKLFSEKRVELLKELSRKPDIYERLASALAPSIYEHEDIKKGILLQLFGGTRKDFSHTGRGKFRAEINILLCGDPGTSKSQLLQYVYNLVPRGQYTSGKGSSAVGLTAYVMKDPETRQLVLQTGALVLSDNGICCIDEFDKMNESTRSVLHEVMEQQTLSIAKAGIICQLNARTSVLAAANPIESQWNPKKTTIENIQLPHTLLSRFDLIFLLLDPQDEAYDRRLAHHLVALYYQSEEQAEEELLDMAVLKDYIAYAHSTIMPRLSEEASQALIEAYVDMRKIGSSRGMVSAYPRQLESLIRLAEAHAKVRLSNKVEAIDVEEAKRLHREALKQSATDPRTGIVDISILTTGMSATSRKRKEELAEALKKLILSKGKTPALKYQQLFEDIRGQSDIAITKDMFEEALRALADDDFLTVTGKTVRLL
T1 sequence (P33992 whole entry, further chain): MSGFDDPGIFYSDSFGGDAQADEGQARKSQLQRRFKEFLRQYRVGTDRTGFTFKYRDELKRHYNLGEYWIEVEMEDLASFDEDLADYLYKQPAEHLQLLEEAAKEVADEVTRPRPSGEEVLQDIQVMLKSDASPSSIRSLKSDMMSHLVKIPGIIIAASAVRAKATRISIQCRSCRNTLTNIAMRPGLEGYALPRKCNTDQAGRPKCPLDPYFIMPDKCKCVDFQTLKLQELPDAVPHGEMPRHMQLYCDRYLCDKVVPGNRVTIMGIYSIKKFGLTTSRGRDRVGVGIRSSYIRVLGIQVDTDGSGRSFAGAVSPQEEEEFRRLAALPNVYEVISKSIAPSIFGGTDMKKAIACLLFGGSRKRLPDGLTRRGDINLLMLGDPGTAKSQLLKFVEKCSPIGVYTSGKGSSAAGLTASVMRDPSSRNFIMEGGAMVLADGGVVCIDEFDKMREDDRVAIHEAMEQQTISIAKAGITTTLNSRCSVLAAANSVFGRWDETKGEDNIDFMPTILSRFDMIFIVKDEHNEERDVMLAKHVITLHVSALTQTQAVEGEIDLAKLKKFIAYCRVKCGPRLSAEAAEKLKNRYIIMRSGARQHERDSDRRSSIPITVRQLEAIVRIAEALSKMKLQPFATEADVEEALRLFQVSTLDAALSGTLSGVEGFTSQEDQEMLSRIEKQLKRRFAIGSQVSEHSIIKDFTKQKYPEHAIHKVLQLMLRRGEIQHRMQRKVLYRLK
T1 sequence (Q14566 whole entry, further chain): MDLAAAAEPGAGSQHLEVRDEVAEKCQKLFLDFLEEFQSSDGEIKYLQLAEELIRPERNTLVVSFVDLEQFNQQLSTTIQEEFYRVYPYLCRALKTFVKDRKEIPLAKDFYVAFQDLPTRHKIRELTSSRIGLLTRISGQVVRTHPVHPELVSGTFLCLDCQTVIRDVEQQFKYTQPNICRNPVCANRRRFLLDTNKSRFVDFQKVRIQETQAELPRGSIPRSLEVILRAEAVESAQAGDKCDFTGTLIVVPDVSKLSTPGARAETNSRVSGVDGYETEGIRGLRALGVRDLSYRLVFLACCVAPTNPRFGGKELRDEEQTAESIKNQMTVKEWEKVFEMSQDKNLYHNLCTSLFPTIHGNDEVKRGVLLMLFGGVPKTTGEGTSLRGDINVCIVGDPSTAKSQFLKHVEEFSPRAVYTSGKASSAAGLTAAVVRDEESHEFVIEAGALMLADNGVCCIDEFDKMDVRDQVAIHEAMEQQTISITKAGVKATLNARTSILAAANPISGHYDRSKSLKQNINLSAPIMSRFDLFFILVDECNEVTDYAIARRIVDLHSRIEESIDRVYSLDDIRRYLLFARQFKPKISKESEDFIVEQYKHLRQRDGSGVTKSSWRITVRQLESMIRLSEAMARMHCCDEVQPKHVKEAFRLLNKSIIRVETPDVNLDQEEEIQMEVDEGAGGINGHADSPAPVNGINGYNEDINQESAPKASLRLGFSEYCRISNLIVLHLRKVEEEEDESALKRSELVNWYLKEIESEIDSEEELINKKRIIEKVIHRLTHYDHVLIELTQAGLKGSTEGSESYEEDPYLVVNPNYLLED
T1 sequence (P33993 whole entry, further chain): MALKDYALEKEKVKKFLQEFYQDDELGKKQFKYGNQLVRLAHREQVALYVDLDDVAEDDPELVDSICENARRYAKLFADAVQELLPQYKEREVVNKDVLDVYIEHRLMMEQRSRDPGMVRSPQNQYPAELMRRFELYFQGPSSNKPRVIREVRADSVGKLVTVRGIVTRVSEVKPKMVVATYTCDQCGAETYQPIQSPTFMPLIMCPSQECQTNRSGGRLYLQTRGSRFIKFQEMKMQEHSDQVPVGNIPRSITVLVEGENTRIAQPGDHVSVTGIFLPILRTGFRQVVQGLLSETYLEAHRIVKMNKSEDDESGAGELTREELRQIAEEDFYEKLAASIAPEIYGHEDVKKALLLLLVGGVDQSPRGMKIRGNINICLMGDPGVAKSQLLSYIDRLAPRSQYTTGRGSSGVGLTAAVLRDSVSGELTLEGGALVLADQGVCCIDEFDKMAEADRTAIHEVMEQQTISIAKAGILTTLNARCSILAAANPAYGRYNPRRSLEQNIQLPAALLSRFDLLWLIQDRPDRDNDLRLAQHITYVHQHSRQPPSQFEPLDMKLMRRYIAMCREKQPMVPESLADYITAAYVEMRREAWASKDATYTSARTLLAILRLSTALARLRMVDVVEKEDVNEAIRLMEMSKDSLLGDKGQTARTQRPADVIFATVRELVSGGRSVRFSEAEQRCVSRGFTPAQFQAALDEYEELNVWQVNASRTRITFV
Method: The fluorescent-polarization (FP) ADP-sensing assays were performed using the Transcreener® ADP^2 FP assay kit (cat #3010-1K, Bellbrook Labs). For hCMG inhibitor screening, assays were performed at 37° C. for 1 hr in 10 μl reactions in a 384-well plate (cat. #4514, Corning) using 2 μL of hCMG (~15 fmol), 25 mM Hepes-NaOH (pH 7.5), 10 mM NaCl, 0.5 mM ATP, 10 mM magnesium acetate, 1 mM DTT, 0.1 mg/ml BSA, and DNA fork substrates. […] Selected inhibitors or samples from a chemical library were added into the reactions when conducting the screening or testing inhibitor effectiveness. The NCI Diversity Set VI chemical library was obtained from the National Cancer Institute (Bethesda, MD).
The window of sensitivity for the ADP-sensing assays is determined by setting up two 10 μL control samples without any added hCMG helicase: a Low-FP mixture (4 nM ADP Alexa Fluor-633 Tracer alone) and a High-FP mixture (4 nM ADP Alexa Fluor-633 Tracer plus patented anti-ADP^2 Antibody). The amount of ADP^2 Antibody used had to be adjusted to account for the use of 500 μM ATP in our hCMG assays, versus 10 μM ATP in enzyme reactions typically assessed with standard kits prepared by BellBrook Labs. […] This was done according to the manufacturer by performing a titration with increasing ADP^2 Antibody, fixed 4 nM ADP Alexa Fluor-633 Tracer, and 500 μM ATP to determine the ~EC80-85 for millipol (mP) changes, which determined the optimal ADP^2 Antibody concentration to use as 0.64 mg/ml (FIG. 9A). Samples are read with a Perkin Elmer Envision II plate reader with optimized Cy5 (far-red) FP-compatible mirror and cubes (cat #2100-8390, Perkin Elmer). The Low-FP sample is the least polarized and gives a low mP reading, while the High-FP sample is the most polarized and gives the highest mP reading. The difference between the Low-FP and High-FP values defines the FP assay window, which is normally in a range of 150-200 mP under ideal conditions for screening purposes. The hCMG helicase hydrolyzes ATP to ADP and decreases the mP reading within this window, with an ideal change (ΔmP) in the FP window of at least 50% to be in a readable range for inhibitor screening (as per manufacturer). Potential hCMG chemical inhibitors reverse this effect and cause the mP readings to increase.
We performed a titration with increasing and decreasing concentrations of ADP and ATP, respectively, to assess the sensitivity of the FP assay in detecting ADP production (FIG. 9B). Consistent with the stated manufacturer predictions, the assay can reliably detect 1-3% changes in ADP production (i.e., 5-15 μM ADP production) in starting concentrations of ATP of 500 μM, with a Z′ efficiency between 0.6-0.8 (determined following manufacturer protocols).
Once the hCMG enzyme reactions are complete, 10 μL of 1× Stop Solution and Detection Buffer (buffer from BellBrook Labs; containing 4 nM ADP Alexa Fluor-633 Tracer plus ADP^2 Antibody) are added to each reaction, and to the High-FP control. The Low-FP control receives 10 μL of 1× Stop Solution and Detection Buffer containing only 4 nM ADP Alexa Fluor-633 Tracer (no Antibody). Samples are incubated at 25° C. for 1 hr, then read in the plate reader. […] Plate readings from these tests of potential positive hits should be similar to that seen with the Low-FP control, or such hits may instead be false-positives.

HaCaT cells = test: CellTiter-Glo viability, HaCaT cells; type: cell-based, human; settings: 72 hr
Method: Human keratinocytes (HaCaT; RRID:CVCL_0038), 143B cells (osteosarcoma; RRID:CVCL_2270), and HEK-293T (RRID:CVCL_0063) cells were maintained in Dulbecco's Modified Eagle's Medium (DMEM) supplemented with 10% fetal bovine serum (FBS; Peak Serum, PS-FB-2). Human Psn1 (pancreatic ductal adenocarcinoma; RRID:CVCL_1644) and H460 (non-small cell lung carcinoma; RRID:CVCL_0459) cells were cultured in RPMI-1640 medium supplemented with 10% FBS. HaCaT cells were synchronized in Go using serum starvation for 48 hr and released into the cell cycle by addition of DMEM with 10% FBS (51). Novobiocin (cat #46531) and Courmermycin-A1 (cat #C9270) were obtained from Sigma. Etoposide (cat #S1225) and AT7519 (cat #S1524) were obtained from SelleckChem. All stock solutions of inhibitors were stored at −20° C. as 10 mM suspensions in DMSO.
Cell viability determinations were performed using CellTiter-Glo Assays (Promega; cat #G7572). Cells were seeded in 96-well plates at a density of ~3×10^3 cells/well and treated with drugs for 72 hr, after which the cells were processed for viability using CellTiter-Glo reagent according to the instructions of the manufacturer. Each drug concentration test was performed using four replicates, and results averaged and plotted on graphs, +/−1 s.d.

[3] = treated at 18 hr (early S-phase)

CO[C@@H]1[C@@H](OC(=O)c2ccc(C)[nH]2)[C@@H](O)[C@H](Oc2ccc3c(O)c(NC(=O)c4c[nH]c(C(=O)Nc5c(O)c6ccc(O[C@@H]7OC(C)(C)[C@H](OC)[C@@H](OC(=O)c8ccc(C)[nH]8)[C@H]7O)c(C)c6oc5=O)c4C)c(=O)oc3c2C)OC1(C)C [CA1]
doses required to inhibit HSP90 (HSP90): 700 to 1000 µM | Ctf4 and Mcm10 on chromatin ([1]; S-phase cells): reduced on chromatin | DNA polymerases-a, -d and -e on chromatin ([1]; S-phase cells): caused a loss of DNA polymerases-a, -d, and -e from chromatin | RPA on chromatin ([1]; S-phase cells): reduced on chromatin | GINS and Cdc45 loading onto chromatin ([1]; early-G1 treatment): blocked | Orc2 chromatin binding ([1]; early-G1 treatment): not affected | MCM loading onto chromatin ([1]; early-G1 treatment, assessed 18 hrs): significantly inhibited | Cdc45 recruitment ([1]; late-G1 treatment (12 hrs)): not appreciably affected | Cdt1 dynamics ([1]; late-G1 treatment (12 hrs)): does not affect Cdt1 dynamics | GINS recruitment to DNA-loaded MCM hexamers ([1]; late-G1 treatment (12 hrs)): inhibits GINS recruitment to DNA-loaded MCM hexamers | remainder of MCM loading ([1]; late-G1 treatment (12 hrs)): only a small effect, if any | Cdc6 chromatin association, polyclonal antibody ([1]; middle G1 exposure): not affected in chromatin association | Cdc6 form on chromatin, monoclonal antibody ([1]; middle G1 exposure): sensitive to CA1 | Orc2 and Orc4 affinity for chromatin ([1]; middle G1 exposure): not affected | Cdt1 loading on chromatin ([1]; treated at 6 hrs (middle G1)): blocks this Cdt1 loading | MCMs already loaded on chromatin ([1]; treated at 6 hrs (middle G1)): does not affect MCMs already loaded | increase in MCM loading at 12 hrs ([1]; treated at 6 hrs (middle G1)): inhibited by CA1 | total Cdt1 ([1]; treated at 6 hrs (middle G1)): promotes loss of total Cdt1 | GINS and Cdc45 chromatin association [1, 3]: notably suppressed | total protein levels of Psf3 and Cdc45 [1, 3]: slightly affected | inhibition of hCMG ATP hydrolysis [2]: potent inhibitor of ATP hydrolysis by the hCMG | IC50 (HaCaT cells; Homo sapiens, HaCaT): ~15 µM

CO[C@@H]1[C@@H](OC(N)=O)[C@@H](O)[C@H](Oc2ccc3c(O)c(NC(=O)c4ccc(O)c(CC=C(C)C)c4)c(=O)oc3c2C)OC1(C)C [novobiocin]
doses required to inhibit HSP90 (HSP90): 700 to 1000 µM | increase in MCM loading at 12 hrs ([1]; treated at 6 hrs (middle G1)): not by novobiocin | inhibition of hCMG ATP hydrolysis [2]: very little inhibitory effect on the hCMG | effect on HaCaT viability (HaCaT cells): little effect on viability
